How the values were obtained:
mouse B16 melanocytes [1] = experiment: Inhibition of melanin production by NDP-MSH-stimulated B16 melanocytes (melanin assay, absorbance at 405 nm); format: cell-based; conditions: for efficacy as positive control for pigmentation inhibition (melanin production): Example 2, FIGS. 1 and 2, B16 + 0.1 μM NDP-MSH, 72 h, kojic acid 3 mM, vitamin C (ascorbyl glucoside) 0.5%, ***p<0.001, ****p<0.0001; for inhibition of pigmentation (melanin production): Example 3, FIG. 3, B16 + NDP-MSH, extract 0.035%, hexylresorcinol 5 μg/mL, alone or combined, kojic acid and vitamin C positive controls
Procedure: All the conditions were tested in triplicate.
For the melanin assay, the medium in each well was aspirated and the cells lyzed by adding 50 μl of 1M NaOH to the cell lawn. The plates were shaken for 30 minutes at room temperature, and the lyzate was then transferred to glass flasks and incubated overnight at 95° C. After incubation, the lyzates were centrifuged at 2000 rpm to remove the cell debris. The absorbance of the supernatant was read at 405 nm, reflecting the amount of melanin in each well, and the average of the three replicates was determined for each condition. A well of cells not treated with NDP-MSH was used as a control, and its OD value subtracted from all the OD values of the other wells. The percentage of melanin inhibition was then calculated according to the formula:
100−((melanin amount in test condition/melanin amount in untreated control)×100)
The significance of the results was evaluated using a one-way Anova test (for the distillation residue extract and the oily extract of flowering tops) or Student's t test (for kojic acid and vitamin C).
The results were compared with the effect obtained with the extract according to the invention alone and hexylresorcinol alone, used at the same doses.

mouse B16 melanocytes [2] = conditions: Example 3, preliminary cytotoxicity study on the cells
Procedure: Melanocytes (mouse line B16) were seeded in 96-well plates at 2000 cells per well in phenol red-free DMEM medium containing 10% fetal calf serum, 2 mM glutamine, 1 mM sodium pyruvate and 100 μg/ml normocin. The following day, the cells were treated with 0.1 μM of NDP-MSH to induce pigmentation. Under the test conditions, in the presence of NDP-MSH, kojic acid at 3 mM and vitamin C (ascorbyl glucoside) at 0.5% were used as positive controls for pigmentation inhibition, and the extracts to be evaluated were tested at several concentrations. All the conditions were tested in triplicate. The cells were incubated at 37° C., 5% CO2 for 72 h in the presence of the extracts and positive controls.

Row | Structure (SMILES) | efficacy as positive control for pigmentation inhibition (melanin production) (mouse B16 melanocytes [1]) | inhibition of pigmentation (melanin production) (mouse B16 melanocytes [1]) | maximum non-cytotoxic dose (mouse B16 melanocytes [2]) [µg/mL]
1 | O=c1cc(CO)occ1O [kojic acid] | demonstrating the efficacy | demonstrating the efficacy | 
2 | CCCCCCc1ccc(O)cc1O [hexylresorcinol, 4-hexyl-1,3-phenylenediol] |  | confirms the depigmenting efficacy | 10
3 | O=C1O[C@H]([C@@H](O)CO)C(O)=C1O[C@H]1O[C@H](CO)[C@@H](O)[C@H](O)[C@H]1O [vitamin C, ascorbyl glucoside] | demonstrating the efficacy | demonstrating the efficacy | 
